Reference: US20150328183A1, “PHARMACEUTICAL COMPOSITION AND USE FOR APPLYING 7,7''-DIMETHOXYAGASTISFLAVONE IN INHIBITING TUMOR METASTASIS” (NATIONAL CHIAO TUNG UNIVERSITY, priority 2014, published 2015)

What was measured:
[1] = system: B16F10 mouse melanoma cells; assay: Transwell (matrigel-coated) migration assay for metastasis inhibition; assay type: cell-based; conditions: 1 μg/ml DMGF, 4 hours, 8 μm film coated with matrigel, compared to the group without DMGF (100%)
Experimental: B16F10 mouse melanoma cells were maintained in 1% antibiotics of Dulbecco's modified Eagle's medium (DMEM; Gibco/Invitrogen, Carlsbad, Calif., USA) supplemented with heat-inactivated 10% fetal bovine serum (Gibco/Invitrogen, Carlsbad, Calif., USA). Antibiotic were preferably penicillin/streptomycin/amphotericin. Cell suspension (3×10^4) were treated with or without 1 μg/ml DMGF in the upper well of a transwell plate. The well without DMGF was used as a control group of experiment. DMEM cell culture medium was added into the upper and lower wells, and the lower well was further added fetal bovine serum, and then maintained in the incubator under 37° C. In other embodiment, B16F10 cell suspension was allowed to incubate in the 4 or 6 upper wells of transwell plate to comduct second repeat or duplicate tests, which is not for limited sense of present invention.
The bottom side of the upper well, which is between the upper well and the lower well, includes a transparent film. The present example applied 8 μm (coated with matrigel) transparent films for tumor metastasis test. […] The cells on the top of the filter were removed with a cotton swab and migrated cells on the underside were fixed with methanol, stained with 50 μg/ml propidium iodide and counted with a fluorescence microscope. […]

[2] = system: Matrix metalloproteases-2 (MMP2) expression in B16F10 cells; assay: MMP2 RNA expression by real-time PCR; assay type: cell-based, mouse; conditions: 1 μg/ml DMGF, 0 hour group defined as 1 times
Experimental: Culturing condition of B16F10 cells with tissue culture techniques is the same as example 2. B16F10 cell suspension was incubated in at least three plates, two of which were added biflavonoid DMGF (final concentration 1 μg/ml) and set back to 37° C. incubator and incubating for 12 and 24 hours, respectively. The culture medium and additional compound were sucked, and then the plate was washed with PBS. B16F10 cells were collected with trypsin-EDTA. And the third well was processes without DMGF, colleting B16F10 cells according to the above-mentioned method. Then total B16F10 cellular RNA was extracted with TRIzol (Invitrogen Life Technologies, Carlsbad, Calif., USA) and reverse-transcribed into cDNA using the extracted RNA template. The cDNA was further a template for real-time polymerase chain reaction (Real-time PCR). The forward primer and the reverse primer of MMP2 were [NT] and [NT], repectively, thus quantified the MMP2 expression level in the above-mentioned time period of control group and experiment group of the present example. In detail, reverse-transcription PCR was treated with SuperScript First-Strand system (Invitrogen Life Technologies). […] While the MMP2 expression level of “0 hour” group is defined as 1 times, the MMP2 expression level of “12 hours” group and “24 hours” group are both calculated according to the “0 hour” group.

[3] = system: SVEC4-10 mouse vascular endothelial cells; assay: Polymerization of fibrous actin (Phallotoxin/DAPI staining); assay type: cell-based; conditions: SVEC4-10 cells, 16 ng/ml VEGF, 1 μg/ml DMGF, 3 to 4 hours
Experimental: Tissue culture technology for culturing SVEC4-10 mouse vascular endothelial cells can be referred to the culturing method of B16F10 in example 2, and is not repeated here. SVEC4-10 cell suspension (3×10^4) were incubated in at least two plates and treated with 16 ng/ml VEGF (Upstate Inc., Lake Placid, N.Y., USA) medium in the two 96-well plate, and one of the plate was further added with 1 μg/ml DMGF as an experiment group. After adding the culture medium and the above-mentioned compound, SVEC4-10 cells were incubated in 37° C. incubator for 3 to 4 hours and then dyed with diamidino-phenyl-indole (DAPI) and Phallotoxin, respectively. Diamidino-phenyl-indole can be combined with double-stranded DNA to label the position of nucleus. Phallotoxin capable of combining with fibrous actin is often used as the dye for observing the polymerization of fibrous actin. After dyeing, the polymerization of fibrous actin was observed under 40 magnification microscopic lens.
“A” (filaments or spot) in FIG.3 marks the structure of fibrous actin, and “B” (circle) in FIG. 3 marks the position of nucleus. […] Polymerization of fibrous actin is correlated with cell migration in which polymerization of fibrous actin happens. Cell migration is the early step of tumor metastasis.

[4] = system: B16F10 cells; assay: Anti-metastatic activity in mice bearing B16F10 tumors (tumor volume); assay type: in vivo; conditions: C57BL/6 mice with B16F10 tumors, 10 mg/kg and 50 mg/kg DMGF injected once every 2 to 3 days
Experimental: At least 3 8-week-old C57BL/6 mice (female) were i.v. injected with 1×10^6 B16F10 cells. Mice bearing tumors with more than 30 mm^3 were injected with PBS, 10 mg/kg DMGF and 50 mg/kg DMGF once every 2 to 3 days. […] That is, with reference to the result of example 5, pharmaceutical composition with DMGF indeed inhibits tumor cell migration, thus inhibiting tumor metastasis.

[5] = system: TNF-α; assay: LPS-induced TNF-α secretion by mouse splenocytes (ELISA); assay type: cell-based; conditions: 1 μg/ml LPS, 1.25 μg/ml DMGF, 72 hours; group without DMGF up to 200 pg/ml
Experimental: 1×10^6 mouse splenocyte suspension was seeded in 24-well culture plate supplemented with 1 μg/ml lipopolysaccharide (LPS) for inducing the immune cells of mouse splenocyte secreting TNF-α, and 0, 0.3125, 0.625, 1.25 μg/ml DMGF to each group. The mouse splenocyte were further incubated in 37° C. incubator for 72 hours. The culture medium was collected and tested for TNF-α concentration by ELISA kit for detecting TNF-α.
With the use of increased DMGF dose level, the lower the TNF-α concentration. For example, mouse splenocyte treated with 1.25 μg/ml DMGF secreted TNF-α concentration fell to 60 pg/ml. With reference to the result of example 6, pharmaceutical composition with DMGF has the ability to inhibit immune cells secreting TNF-α to inhibit inflammation. Since inflammation is related to improving angiogenesis and invasion, migration or other pathological effects of tumor cells, pharmaceutical composition with DMGF has the ability to inhibit inflammation, thus inhibiting tumor metastasis.

[6] = system: Aspergillus flavus; conditions: cited from earlier work

## COc1cc2oc(-c3ccc(O)cc3)cc(=O)c2c(O)c1-c1c(OC)cc(O)c2c(=O)cc(-c3ccc(O)cc3)oc12 [DMGF, 7,7″-Dimethoxyagastisflavone]
[1]
  reduction in the capacity of B16F10 cells to migrate through the membrane of transwell chambers: about 65%
[2]; 12 hours
  MMP2 RNA expression level relative to 0 hour group: 0.5 times
[2]; 24 hours
  MMP2 RNA expression level relative to 0 hour group: 0.3 times
[3]
  polymerization of fibrous actin: multiple dots without polymerization of fibrous actin
[4]
  tumor volume versus PBS-treated mouse: significantly smaller
[5]
  TNF-α concentration secreted by mouse splenocyte: 60 pg/mL
[6]
  inhibition of aflatoxin secretion: inhibiting Aspergillus flavus secreting aflatoxin
